ChEMBL document CHEMBL3259730, “Synthesis and biological evaluation of 2,3-diaryl isoquinolinone derivatives as anti-breast cancer agents targeting ERα and VEGFR-2” (Bioorg Med Chem Lett, 2014)
pIC50: −log10 of the molar value.

Legend:
[1] = tested on: MCF7; assay: Antiproliferative activity against human MCF7 cells after 48 hrs by MTT assay; type: functional, cell-based; details: MCF7, 48 h
[2] = target: Vascular endothelial growth factor receptor 2 (Homo sapiens) (UniProt P35968); details: at 0.1 mg/mL;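 note: VEGFR-2 inhibition read out by HTRF after 1 h, with the receptor's origin stated as unknown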
Chain of Vascular endothelial growth factor receptor 2 (Homo sapiens) (P35968 whole entry): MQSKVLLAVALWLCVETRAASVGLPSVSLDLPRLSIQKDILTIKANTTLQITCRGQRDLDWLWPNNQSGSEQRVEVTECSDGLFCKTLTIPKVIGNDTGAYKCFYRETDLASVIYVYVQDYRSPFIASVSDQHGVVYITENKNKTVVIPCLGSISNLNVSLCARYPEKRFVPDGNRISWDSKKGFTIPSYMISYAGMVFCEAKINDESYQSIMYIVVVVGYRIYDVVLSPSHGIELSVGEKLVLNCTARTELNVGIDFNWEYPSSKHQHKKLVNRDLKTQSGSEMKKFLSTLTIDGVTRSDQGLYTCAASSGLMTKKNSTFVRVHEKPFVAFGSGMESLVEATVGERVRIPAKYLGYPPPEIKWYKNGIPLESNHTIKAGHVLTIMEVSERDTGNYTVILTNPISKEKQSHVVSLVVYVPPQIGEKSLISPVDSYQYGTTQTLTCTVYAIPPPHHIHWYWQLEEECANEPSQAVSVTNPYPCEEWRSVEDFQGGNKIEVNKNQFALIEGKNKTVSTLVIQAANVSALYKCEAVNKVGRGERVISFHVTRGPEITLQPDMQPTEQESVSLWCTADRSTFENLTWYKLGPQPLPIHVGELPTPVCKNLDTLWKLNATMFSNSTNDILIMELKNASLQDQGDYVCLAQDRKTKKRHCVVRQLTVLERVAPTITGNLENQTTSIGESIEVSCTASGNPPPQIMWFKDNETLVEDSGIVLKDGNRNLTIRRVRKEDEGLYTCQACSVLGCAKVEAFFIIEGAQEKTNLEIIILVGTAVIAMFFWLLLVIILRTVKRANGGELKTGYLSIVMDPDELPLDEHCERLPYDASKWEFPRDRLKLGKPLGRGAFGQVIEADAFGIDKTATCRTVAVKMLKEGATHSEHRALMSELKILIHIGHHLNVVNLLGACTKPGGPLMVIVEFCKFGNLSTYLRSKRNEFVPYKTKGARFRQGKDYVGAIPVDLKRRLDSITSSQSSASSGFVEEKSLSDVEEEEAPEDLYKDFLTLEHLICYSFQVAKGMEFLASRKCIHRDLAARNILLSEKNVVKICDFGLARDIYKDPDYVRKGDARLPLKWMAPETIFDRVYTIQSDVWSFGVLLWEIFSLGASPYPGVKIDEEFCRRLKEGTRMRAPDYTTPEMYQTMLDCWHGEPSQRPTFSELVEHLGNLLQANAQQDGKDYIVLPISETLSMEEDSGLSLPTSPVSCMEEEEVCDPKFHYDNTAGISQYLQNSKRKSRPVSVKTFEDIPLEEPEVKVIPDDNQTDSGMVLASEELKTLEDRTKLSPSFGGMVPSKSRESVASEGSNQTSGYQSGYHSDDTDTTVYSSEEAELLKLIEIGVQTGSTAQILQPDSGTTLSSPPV
Description: Inhibition of VEGFR-2 (unknown origin) at 0.1 mg/ml after 1 hr by HTRF assay

[3] = tested on: Chorioallantoic membrane; assay: Antiangiogenic activity in Chicken chorioallantoic membrane after 72 hrs relative to control; type: functional, cell membranes; details: Gallus gallus

SMILES | pIC50 [1] | inhibition [2] | inhibition [3]
COc1ccc(-c2cc3ccc(OC)cc3c(=O)n2-c2ccc(OCCN3CCCCC3)cc2)cc1 | 3.49 | 65.3% | 
CN(C)CCOc1ccc(-n2c(-c3ccc(O)cc3)cc3ccc(O)cc3c2=O)cc1 | 4.72 | 79.4% | 
CN1CCN(CCOc2ccc(-n3c(-c4ccc(O)cc4)cc4ccc(O)cc4c3=O)cc2)CC1 | 5.02 | 103% | Dose-dependent effect
COc1ccc(-c2cc3ccc(OC)cc3c(=O)n2-c2ccc(OCCCN3CCCC3)cc2)cc1 | 3.32 | 98.5% | 
CCN(CC)CCOc1ccc(-n2c(-c3ccc(OC)cc3)cc3ccc(OC)cc3c2=O)cc1 | 3.42 | 92.5% | 
O=c1c2cc(O)ccc2cc(-c2ccc(O)cc2)n1-c1ccc(OCCN2CCCCC2)cc1 | 5.44 | 84.8% | 
O=c1c2cc(O)ccc2cc(-c2ccc(O)cc2)n1-c1ccc(OCCN2CCCC2)cc1 | 4.93 | 49.9% | 
COc1ccc(-c2cc3ccc(OC)cc3c(=O)n2-c2ccc(OCCN(C)C)cc2)cc1 | < 3.00 | 66.1% | 
COc1ccc(-c2cc3ccc(OC)cc3c(=O)n2-c2ccc(OCCCN3CCCCC3)cc2)cc1 | < 3.00 | 72.8% | 
COc1ccc(-c2cc3ccc(OC)cc3c(=O)n2-c2ccc(OCCN3CCOCC3)cc2)cc1 | < 3.00 | 51.2% | 
O=c1c2cc(O)ccc2cc(-c2ccc(O)cc2)n1-c1ccc(OCCCN2CCCC2)cc1 | 4.90 | 48.3% | 
COc1ccc(-c2cc3ccc(OC)cc3c(=O)n2-c2ccc(OCCN3CCN(C)CC3)cc2)cc1 | 3.37 | 79.4% | 
COc1ccc(-c2cc3ccc(OC)cc3c(=O)n2-c2ccc(OCCN3CCCC3)cc2)cc1 | 3.06 | 83.8% | 
O=c1c2cc(O)ccc2cc(-c2ccc(O)cc2)n1-c1ccc(OCCCN2CCCCC2)cc1 | 5.56 | 100% | Dose-dependent effect
CC/C(=C(\c1ccccc1)c1ccc(OCCN(C)C)cc1)c1ccccc1 [TAMOXIFEN] | 5.72 |  | 
